Experimental data reported in patent US7008905B2, “Method of combating undesired plant growth on cereals” (BASF Aktiengesellschaft, priority 2000, dated 2006).

Legend:
Type in all cases: in vivo
Lamium purpureum [1] = experiment: Post-emergence test, weed control; settings: 2–4 weeks after treatment, rating 0-100 (100=death), Table 5
Procedure: (§1) These acetone solutions are diluted with water and the resulting formulations applied at dosage levels equivalent of about 0.030 to 0.240 kg per hectare of test compound per pot. After spraying the plants are placed an greenhouse benches and are cared for in the usual manner, commensurate with conventional greenhouse practices. From 2 to 4 weeks after treatment, the seedling plants are examined and rated according to the rating system provided above. A rating 0 indicates growth as untreated control, a rating 100 indicates death.

Galium aparine = experiment: Post-emergence test, weed control; settings: 2–4 weeks after treatment, rating 0-100 (100=death), Table 5
Procedure: as §1

Polygonum convolvulus [2] = experiment: Post-emergence test, weed control; settings: 2–4 weeks after treatment, rating 0-100 (100=death), Table 5
Procedure: as §1

Stellaria media = experiment: Post-emergence test, weed control; settings: 2–4 weeks after treatment, rating 0-100 (100=death), Table 5
Procedure: as §1

VIOAR = experiment: Post-emergence test, weed control; settings: 2–4 weeks after treatment, rating 0-100 (100=death), Table 5
Procedure: as §1

Setaria viridis = experiment: Post-emergence test, weed control; settings: 2–4 weeks after treatment, rating 0-100 (100=death), Table 5
Procedure: as §1

Matricaria inodora [3] = experiment: Post-emergence test, weed control; settings: 2–4 weeks after treatment, rating 0-100 (100=death), Table 5
Procedure: as §1

Lamium purpureum [4] = experiment: Pre-emergence test, weed control; settings: 3 weeks after treatment, rating 0-100 (100=death), Table 1
Procedure: (§2) The pre-emergence tests involve spraying a liquid formulation of the compound onto the soil in which the seeds of the plant species mentioned above has recently been sown.
(§3) The soil used in the tests is a prepared horticultural loam. The formulations used in the tests are prepared from solutions of the test compounds in acetone containing 0.4% by weight of an alkylphenol/ethylene oxide condensate available under the trade mark TRITON X-155.
(§4) In these tests untreated sown soil is used as control. The herbicidal effects of the test compounds are assessed visually three weeks after spraying the soil and are recorded an a 0 to 100 scale. A rating 0 indicates growth as untreated control, a rating 100 indicates death. An increase of 10 unit an the linear scale approximates to a 10% increase in the level of effect. The results of the assessment are set out in Tables 1 to 4.

Veronica persica = experiment: Pre-emergence test, weed control; settings: 3 weeks after treatment, rating 0-100 (100=death), Table 1
Procedure: as §2, §3, §4

Apera spica-venti = experiment: Pre-emergence test, weed control; settings: 3 weeks after treatment, rating 0-100 (100=death), Table 1
Procedure: as §2, §3, §4

Poa annua = experiment: Pre-emergence test, weed control; settings: 3 weeks after treatment, rating 0-100 (100=death), Table 1
Procedure: as §2, §3, §4

Polygonum convolvulus [5] = experiment: Pre-emergence test, weed control; settings: 3 weeks after treatment, rating 0-100 (100=death), Table 1
Procedure: as §2, §3, §4

Matricaria inodora [6] = experiment: Pre-emergence test, weed control; settings: 3 weeks after treatment, rating 0-100 (100=death), Table 1
Procedure: as §2, §3, §4

[7] = system: Triticum aestivum variety “Monopol”; experiment: Pre-emergence test, selectivity; settings: 3 weeks after treatment, rating 0-100 (100=death), Table 2
Procedure: as §2, §3
as §4, with “These acetone solutions are diluted with water and the resulting formulations applied at dosage levels corresponding to 15 g, 30 g, 60 g, 120 g or 240 g of active material per hectare in a volume equivalent to 900 liters per hectare. In” for “In”

[8] = system: Hordeum vulgare variety “Mammut”; experiment: Pre-emergence test, selectivity; settings: 3 weeks after treatment, rating 0-100 (100=death), Table 2
Procedure: as §2, §3
as §4, with “These acetone solutions are diluted with water and the resulting formulations applied at dosage levels corresponding to 15 g, 30 g, 60 g, 120 g or 240 g of active material per hectare in a volume equivalent to 900 liters per hectare. In” for “In”

HORVW = experiment: Pre-emergence test, selectivity; settings: 3 weeks after treatment, rating 0-100 (100=death), Table 2
Procedure: as §2, §3
as §4, with “These acetone solutions are diluted with water and the resulting formulations applied at dosage levels corresponding to 15 g, 30 g, 60 g, 120 g or 240 g of active material per hectare in a volume equivalent to 900 liters per hectare. In” for “In”

[9] = system: Triticum aestivum variety “Kanzler”; experiment: Pre-emergence test, selectivity; settings: 3 weeks after treatment, rating 0-100 (100=death), Table 2
Procedure: as §2, §3
as §4, with “These acetone solutions are diluted with water and the resulting formulations applied at dosage levels corresponding to 15 g, 30 g, 60 g, 120 g or 240 g of active material per hectare in a volume equivalent to 900 liters per hectare. In” for “In”

[10] = system: Triticum aestivum variety “Monopol”; experiment: Post-emergence test, selectivity; settings: 2–4 weeks after treatment, rating 0-100 (100=death), Table 6
Procedure: as §1

[11] = system: Triticum aestivum variety “Kanzler”; experiment: Post-emergence test, selectivity; settings: 2–4 weeks after treatment, rating 0-100 (100=death), Table 6
Procedure: as §1

`Cc1cnc(-c2ccc(C(F)(F)F)cc2)nc1Oc1cccc(C(F)(F)F)c1` [REF-1] was tested, and the “LAMPU weed control rating” value (Lamium purpureum [1]; 0.030 kg/ha) was 93, the “LAMPU weed control rating” value (Lamium purpureum [1]; 0.060 kg/ha) was 93 and the “LAMPU weed control rating” value (Lamium purpureum [1]; 0.120 kg/ha) was 93. For the same molecule, the “LAMPU weed control rating” value (Lamium purpureum [1]; 0.240 kg/ha) was 93, the “GALAP weed control rating” value (Galium aparine; 0.030 kg/ha) was 80 and the “GALAP weed control rating” value (Galium aparine; 0.060 kg/ha) was 85. For the same molecule, the “GALAP weed control rating” value (Galium aparine; 0.120 kg/ha) was 92, the “GALAP weed control rating” value (Galium aparine; 0.240 kg/ha) was 92 and the “POLCO weed control rating” value (Polygonum convolvulus [2]; 0.030 kg/ha) was 15. The “POLCO weed control rating” value (Polygonum convolvulus [2]; 0.120 kg/ha) was 25, the “POLCO weed control rating” value (Polygonum convolvulus [2]; 0.240 kg/ha) was 70 and the “STEME weed control rating” value (Stellaria media; 0.030 kg/ha) was 80. The “STEME weed control rating” value (Stellaria media; 0.060 kg/ha) was 90, the “STEME weed control rating” value (Stellaria media; 0.120 kg/ha) was 92 and the “STEME weed control rating” value (Stellaria media; 0.240 kg/ha) was 92. The “VIOAR weed control rating” value (VIOAR; 0.030 kg/ha) was 92, the “VIOAR weed control rating” value (VIOAR; 0.060 kg/ha) was 93 and the “VIOAR weed control rating” value (VIOAR; 0.120 kg/ha) was 93. The “VIOAR weed control rating” value (VIOAR; 0.240 kg/ha) was 95, the “SETVI weed control rating” value (Setaria viridis; 0.030 kg/ha) was 99 and the “SETVI weed control rating” value (Setaria viridis; 0.060 kg/ha) was 99. The “SETVI weed control rating” value (Setaria viridis; 0.120 kg/ha) was 100, the “SETVI weed control rating” value (Setaria viridis; 0.240 kg/ha) was 100 and the “MATIN weed control rating” value (Matricaria inodora [3]; 0.030 kg/ha) was 70. The “MATIN weed control rating” value (Matricaria inodora [3]; 0.060 kg/ha) was 75, the “MATIN weed control rating” value (Matricaria inodora [3]; 0.120 kg/ha) was 75 and the “MATIN weed control rating” value (Matricaria inodora [3]; 0.240 kg/ha) was 85. For the same molecule, the “LAMPU weed control rating” value (Lamium purpureum [4]; 0.015 kg/ha) was 100, the “LAMPU weed control rating” value (Lamium purpureum [4]; 0.030 kg/ha) was 100 and the “LAMPU weed control rating” value (Lamium purpureum [4]; 0.060 kg/ha) was 100. For the same molecule, the “LAMPU weed control rating” value (Lamium purpureum [4]; 0.1 kg/ha) was 100, the “LAMPU weed control rating” value (Lamium purpureum [4]; 0.240 kg/ha) was 100 and the “VERPE weed control rating” value (Veronica persica; 0.015 kg/ha) was 100. The “VERPE weed control rating” value (Veronica persica; 0.030 kg/ha) was 100, the “VERPE weed control rating” value (Veronica persica; 0.060 kg/ha) was 100 and the “VERPE weed control rating” value (Veronica persica; 0.1 kg/ha) was 100. The “VERPE weed control rating” value (Veronica persica; 0.240 kg/ha) was 100, the “APESV weed control rating” value (Apera spica-venti; 0.015 kg/ha) was 100 and the “APESV weed control rating” value (Apera spica-venti; 0.030 kg/ha) was 100. The “APESV weed control rating” value (Apera spica-venti; 0.060 kg/ha) was 100, the “APESV weed control rating” value (Apera spica-venti; 0.1 kg/ha) was 100 and the “APESV weed control rating” value (Apera spica-venti; 0.240 kg/ha) was 100. For the same molecule, the “POAAN weed control rating” value (Poa annua; 0.015 kg/ha) was 98, the “POAAN weed control rating” value (Poa annua; 0.030 kg/ha) was 100 and the “POAAN weed control rating” value (Poa annua; 0.060 kg/ha) was 100. The “POAAN weed control rating” value (Poa annua; 0.1 kg/ha) was 100, the “POAAN weed control rating” value (Poa annua; 0.240 kg/ha) was 100 and the “POLCO weed control rating” value (Polygonum convolvulus [5]; 0.015 kg/ha) was 92. The “POLCO weed control rating” value (Polygonum convolvulus [5]; 0.030 kg/ha) was 93, the “POLCO weed control rating” value (Polygonum convolvulus [5]; 0.060 kg/ha) was 100 and the “POLCO weed control rating” value (Polygonum convolvulus [5]; 0.1 kg/ha) was 100. For the same molecule, the “POLCO weed control rating” value (Polygonum convolvulus [5]; 0.240 kg/ha) was 100, the “MATIN weed control rating” value (Matricaria inodora [6]; 0.015 kg/ha) was 99 and the “MATIN weed control rating” value (Matricaria inodora [6]; 0.030 kg/ha) was 99. The “MATIN weed control rating” value (Matricaria inodora [6]; 0.060 kg/ha) was 100, the “MATIN weed control rating” value (Matricaria inodora [6]; 0.1 kg/ha) was 100 and the “MATIN weed control rating” value (Matricaria inodora [6]; 0.240 kg/ha) was 100. For the same molecule, the “TRZAWM rating (Selectivity)” value ([7]; 0.015 kg/ha) was 3, the “TRZAWM rating (Selectivity)” value ([7]; 0.030 kg/ha) was 12 and the “TRZAWM rating (Selectivity)” value ([7]; 0.060 kg/ha) was 25. The “TRZAWM rating (Selectivity)” value ([7]; 0.120 kg/ha) was 30, the “TRZAWM rating (Selectivity)” value ([7]; 0.240 kg/ha) was 45 and the “HORVWM rating (Selectivity)” value ([8]; 0.015 kg/ha) was 25. The “HORVWM rating (Selectivity)” value ([8]; 0.030 kg/ha) was 45, the “HORVWM rating (Selectivity)” value ([8]; 0.060 kg/ha) was 45 and the “HORVWM rating (Selectivity)” value ([8]; 0.120 kg/ha) was 60. For the same molecule, the “HORVWM rating (Selectivity)” value ([8]; 0.240 kg/ha) was 65, the “HORVW rating (Selectivity)” value (HORVW; 0.015 kg/ha) was 35 and the “HORVW rating (Selectivity)” value (HORVW; 0.030 kg/ha) was 45. The “HORVW rating (Selectivity)” value (HORVW; 0.060 kg/ha) was 55, the “HORVW rating (Selectivity)” value (HORVW; 0.120 kg/ha) was 60 and the “HORVW rating (Selectivity)” value (HORVW; 0.240 kg/ha) was 65. The “TRZAWK rating (Selectivity)” value ([9]; 0.015 kg/ha) was 3, the “TRZAWK rating (Selectivity)” value ([9]; 0.030 kg/ha) was 10 and the “TRZAWK rating (Selectivity)” value ([9]; 0.060 kg/ha) was 25. For the same molecule, the “TRZAWK rating (Selectivity)” value ([9]; 0.120 kg/ha) was 25, the “TRZAWK rating (Selectivity)” value ([9]; 0.240 kg/ha) was 40 and the “TRZAWM rating (Selectivity)” value ([10]; 0.03 kg/ha) was 15. For the same molecule, the “TRZAWM rating (Selectivity)” value ([10]; 0.06 kg/ha) was 22, the “TRZAWM rating (Selectivity)” value ([10]; 0.12 kg/ha) was 30 and the “TRZAWM rating (Selectivity)” value ([10]; 0.24 kg/ha) was 45. For the same molecule, the “TRZAWK rating (Selectivity)” value ([11]; 0.03 kg/ha) was 18, the “TRZAWK rating (Selectivity)” value ([11]; 0.06 kg/ha) was 25 and the “TRZAWK rating (Selectivity)” value ([11]; 0.12 kg/ha) was 30. For the same molecule, the “TRZAWK rating (Selectivity)” value ([11]; 0.24 kg/ha) was 40.
